Columns and labels:
[1] = Mutual solubility of Formula 1 solvent and water (Example 1); type: physicochemical; settings: for solubility in water: solvent dissolved in water
Protocol: The solubility of Formula 1 Solvent A in water is measured to be 0.67 weight percent. The solubility of water in Formula 1 Solvent A is measured to be 1.44 weight percent.

[2] = Solubility of agricultural active ingredients in solvent by visual observation, Formula 1 Solvent A vs N,N-dialkyl fatty amide (Example 3)
Protocol: The N,N-dialkyl fatty amide solvent used is HALLCOMID™ M-10’, which is a N,N-dimethyldecanamide from Stepan Company (“N,N-dialkyl Fatty Amide”). The agricultural active ingredients used are bifenthrin, tebuconazole, nitrapyrin, and dicamba acid.
(§1) The solubilities are determined by visual observation using the following method. Four milliliter vials are charged with agricultural active ingredient (10 to 50 wt %) and the specified solvent (90 to 50 wt %). The vials are capped and taped to seal with electric tape. The vials are secured in a plastic container and shaken on a laboratory shaker for 12 hours at ambient laboratory temperature and humidity. After 12 hours, each sample set is evaluated for solubility of the agricultural active ingredient solid. Complete solubilization of the agricultural active ingredient is determined to be achieved if a homogeneous clear solution is observed. The formulations made with Formula 1 Solvent A represent some embodiments of agricultural formulations of the present invention.

[3] = Solubility of agricultural active ingredients in solvent by visual observation, Formula 1 Solvent A vs aromatic hydrocarbon (Example 2)
Protocol: The aromatic hydrocarbon solvent used is Aromatic 150 from Exxon Mobil Corporation (“Aromatic Hydrocarbon”). The agricultural active ingredients used are bifenthrin, tebuconazole, nitrapyrin, and dicamba acid.
as §1

[4] = in Formula 1 Solvent A (ethyl 2-furoate, Ethyl 408), shaken 12 hours at ambient laboratory temperature, visual observation, Table 3
[5] = in N,N-dialkyl Fatty Amide (HALLCOMID M-10, N,N-dimethyldecanamide), shaken 12 hours at ambient laboratory temperature, visual observation, Table 3
[6] = in Aromatic Hydrocarbon (Aromatic 150, Exxon Mobil), shaken 12 hours at ambient laboratory temperature, visual observation, Table 2
[7] = in Formula 1 Solvent A (ethyl 2-furoate, Ethyl 408), shaken 12 hours at ambient laboratory temperature, visual observation, Table 2

| Molecule | solubility in water [1] [weight percent] | Agricultural Active Ingredient Solubility [2, 4] [wt %] | Agricultural Active Ingredient Solubility [2, 5] [wt %] | Agricultural Active Ingredient Solubility [3, 6] [wt %] | Agricultural Active Ingredient Solubility [3, 7] [wt %] | solubility of water in Formula 1 Solvent A ([1]; water dissolved in the solvent) [weight percent] | Agricultural Active Ingredient Solubility [2] [wt %] | Agricultural Active Ingredient Solubility [3] [wt %] |
| --- | --- | --- | --- | --- | --- | --- | --- | --- |
| 5-methyl-2-furoate | 0.67 | – | – | – | – | – | – | – |
| Cc1c(COC(=O)[C@@H]2[C@H](/C=C(\Cl)C(F)(F)F)C2(C)C)cccc1-c1ccccc1 (racemic) [Bifenthrin, bifenthrin] | – | 30 | 30 | 40 | 30 | – | – | – |
| COc1c(Cl)ccc(Cl)c1C(=O)O [Dicamba Acid, dicamba acid] | – | 40 | <10 | <10 | 40 | – | – | – |
| CCOC(=O)c1ccco1 [Formula 1 Solvent A, ethyl 2-furoate] | 0.67 | – | – | – | – | 1.44 | – | – |
| Clc1cccc(C(Cl)(Cl)Cl)n1 [Nitrapyrin, nitrapyrin] | – | – | – | – | – | – | >50 | >50 |
| CC(C)(C)C(O)(CCc1ccc(Cl)cc1)Cn1cncn1 (centres unmarked) [Tebuconazole, tebuconazole] | – | 20 | 30 | <10 | – | – | – | 20 |
